A word on the EC50: it is the concentration needed to bring the measured effect to its halfway point.

Results on 2 compounds are retold here after paper PMC7390918, “NVP-CGM097, an HDM2 Inhibitor, Antagonizes ATP-Binding Cassette Subfamily B Member 1-Mediated Drug Resistance” (Frontiers in Oncology, 2020).

The target of data set [1] is T1, ABCB1 (Homo sapiens, UniProt P08183).
In data set [2] the target is T1, ABCB1. In words: biochemical.

T1 sequence (P08183 whole entry): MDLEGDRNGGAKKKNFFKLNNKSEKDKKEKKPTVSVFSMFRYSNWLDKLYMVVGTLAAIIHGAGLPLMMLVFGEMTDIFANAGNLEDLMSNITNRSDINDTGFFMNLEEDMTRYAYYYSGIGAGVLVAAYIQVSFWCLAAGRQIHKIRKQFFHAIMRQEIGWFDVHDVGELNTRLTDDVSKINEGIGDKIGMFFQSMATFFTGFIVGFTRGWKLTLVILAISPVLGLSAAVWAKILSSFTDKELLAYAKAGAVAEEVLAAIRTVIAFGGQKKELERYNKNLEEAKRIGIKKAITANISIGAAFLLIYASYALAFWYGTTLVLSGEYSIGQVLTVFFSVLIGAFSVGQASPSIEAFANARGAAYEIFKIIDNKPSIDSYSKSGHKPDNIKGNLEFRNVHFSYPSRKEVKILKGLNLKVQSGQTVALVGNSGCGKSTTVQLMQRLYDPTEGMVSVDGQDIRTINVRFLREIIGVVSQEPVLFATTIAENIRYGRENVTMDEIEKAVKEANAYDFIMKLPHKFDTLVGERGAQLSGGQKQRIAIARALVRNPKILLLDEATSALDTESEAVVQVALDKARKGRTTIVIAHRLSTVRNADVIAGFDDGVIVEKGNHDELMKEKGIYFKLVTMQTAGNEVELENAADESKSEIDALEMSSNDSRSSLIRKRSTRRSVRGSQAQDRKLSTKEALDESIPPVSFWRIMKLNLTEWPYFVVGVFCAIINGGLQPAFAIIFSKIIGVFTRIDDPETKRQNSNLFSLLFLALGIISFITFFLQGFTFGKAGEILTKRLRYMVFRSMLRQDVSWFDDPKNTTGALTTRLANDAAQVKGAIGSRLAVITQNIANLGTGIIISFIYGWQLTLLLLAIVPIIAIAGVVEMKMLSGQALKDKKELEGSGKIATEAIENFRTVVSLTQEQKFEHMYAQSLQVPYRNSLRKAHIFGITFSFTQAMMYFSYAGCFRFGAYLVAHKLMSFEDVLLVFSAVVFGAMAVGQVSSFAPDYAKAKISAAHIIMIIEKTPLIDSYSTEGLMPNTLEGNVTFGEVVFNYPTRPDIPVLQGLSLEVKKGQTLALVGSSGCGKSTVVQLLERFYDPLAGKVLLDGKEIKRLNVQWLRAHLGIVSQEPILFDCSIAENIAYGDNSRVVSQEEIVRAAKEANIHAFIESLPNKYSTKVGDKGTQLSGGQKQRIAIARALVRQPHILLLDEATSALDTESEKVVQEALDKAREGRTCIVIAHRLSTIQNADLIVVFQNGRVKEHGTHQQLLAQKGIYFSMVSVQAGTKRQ

For `CC(=O)O[C@H]1C(=O)[C@@]2(C)[C@H]([C@H](OC(=O)c3ccccc3)[C@]3(O)C[C@H](OC(=O)[C@H](O)[C@@H](NC(=O)c4ccccc4)c4ccccc4)C(C)=C1C3(C)C)[C@]1(OC(C)=O)CO[C@@H]1C[C@@H]2O` [paclitaxel], the “[3H]-paclitaxel accumulation and efflux in KB-C2 versus parental KB-3-1 cells” value on ABCB1 [1] is “NVP-CGM097 can block the efflux activity of ABCB1-overexpressing cells, therefore, increasing intracellular paclitaxel accumulation”.
Consider `COc1cc2c(cc1OC(C)C)[C@H](c1ccc(Cl)cc1)N(c1ccc(N(C)C[C@H]3CC[C@H](N4CCN(C)C(=O)C4)CC3)cc1)C(=O)C2` [NVP-CGM097], for which, on ABCB1 [2], the midpoint of the response, the EC50, lay at 450 nM.
